This note sets out measurements from patent US20100056516A1 (priority 2006, published 2010).

SMILES strings stand for the structures. Like-named read-outs stand apart in the source and are kept apart here.

In series [1] the target is HIV-1 reverse transcriptase (RNase H) (Human immunodeficiency virus type 1 group M subtype B, UniProt P04585). The series can be described thus: ASH assay: RNase H mediated RNA cleavage (ECL format, BioVeris M384). The format is biochemical. As for the experimental part: Potency of a substance as an RNase H inhibitors can be determined by measuring its ability prevent RNase H catalyzed cleavage of the RNA strand in a RNA/DNA hybrid duplex substrate. RNase H activity is measured using a substrate generated by annealing the oligoribo-nucleotide 5′-rCrCrUrCrUrCrArArArArArCrArGrGrArGrCrArGrArArArGrArCrArArG (SEQ ID NO:1) to the oligodeoxyribonucleotide 5′-Biotin-[…] (SEQ ID NO:2). […] (SEQ ID NO:3). The resulting double-stranded duplex DNA product is quantitated in an ALPHA screen format using [streptavidin- and anti-fluorescein-coated beads (Packard Bioscience) following the manufacturer's guidelines and reading on a Fusion AlphaScreen instrument. Alternatively, the released 5′-Biotinylated DNA is annealed to a complementary oligodeoxyribonucleotide: 5′-ruthenium-[…] (SEQ ID NO:3). The resulting double-stranded duplex DNA product is quantitated in an ECL screen format using Dynabeads M280 coated with streptavidin (BioVeris Corporation) following the manufacturer's guidelines and reading on a BioVeris M384 Analyzer.

Series [2] concerns the target HIV integrase (Human immunodeficiency virus type 1 group M subtype B, UniProt P04585). The series can be described thus: integrase strand transfer assay (STA). The format is biochemical.
For series [3], the system named is HXB2 virus. The series can be described thus: microbe, parasite or virus in culture. The format is cell-based, HIV. Summed up:
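HXB2 virus used to infect HeLa P4-2 cells in a single-cycle format; inhibition of acute infection is measured.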

The subject of series [4] is HeLa P4-2 cell line. The text has this: The HeLa P4-2 cell line used in the single cycle HIV infectivity Assay B of Example 270 was also used to determine compound cytotoxicity in the absence of viral infection.
[5] abbreviates: IC50 in the STA assay, integrase strand transfer.
Where [6] appears, read: STA (IC50, μM), integrase strand-transfer assay, Example 269.
Setting [7] is: Human immunodeficiency virus 1, HXB2, HeLaP4-2, read-out: SCIA-B (IC50, μM).
Setting [8] is: Human immunodeficiency virus 1, HXB2, HeLaP4-2, read-out: antiviral IC50 (SCIA-B).
Where [9] appears, read: RNase H mediated RNA cleavage assay, Example 269, read-out: ASH (IC50).
The mark [10] stands for this setting: integrase strand transfer, read-out: IC50 in the STA assay.
Where [11] appears, read: integrase strand-transfer assay, Example 269, read-out: STA (IC50).

Usually IC50 stands for the midpoint of a concentration-inhibition curve. With `CCOC(=O)c1c(O)c2c(-c3ccccc3)ccnc2n(O)c1=O` [Example 4, Ethyl 1,4-dihydroxy-2-oxo-5-phenyl-1,2-dihydro-1,8-naphthylidine-3-carboxylate], the IC50 was 260 nM in series [1]; less than 50 µM in series [2] (setting [5]); 0.24 µM in series [2] (setting [6]); 0.53 µM in series [3] (setting [7]); less than 100 µM in series [3] (setting [8]). In series [4] (human), the “Cytotoxicity (LD50, μM)” value was determined as 50 µM.

On to `O=c1cc(N2CCc3ncccc3C2)c2cccnc2n1O` [Example 123, 4-(7,8-dihydro-1,6-naphthyridin-6(5H)-yl)-1-hydroxy-1,8-naphthyridin-2(1H)-one], for which the 50% inhibitory concentration (IC50) in series [1] (setting [9]) was 110 nM; in series [2] (setting [10]), less than 50 µM; in series [2] (setting [11]) it was 2.4 µM; in series [3] (setting [7]) it was 0.42 µM; in series [3] (setting [8]), less than 100 µM. Also, in series [4] (cytotoxicity test B, Alamar Blue, HeLa P4-2 cells, no virus, tested up to 100 micromolar), the “Cytotoxicity (LD50, μM)” value came out at 8.7 µM.

Regarding `NCc1ccc(-c2ccc3c(c2)CN(c2cc(=O)n(O)c4ncccc24)C3)cc1` [Example 257, 4-{5-[4-(aminomethyl)phenyl]-1,3-dihydro-2H-isoindol-2-yl}-1-hydroxy-1,8-naphthyridin-2(1H)-one], the IC50 in series [1] was 33 nM; in series [2] (setting [5]), less than 50 µM; in series [2] (setting [6]), 46 µM; in series [3] (setting [7]) it was 0.35 µM; in series [3] (setting [8]), less than 100 µM. Moreover, the “Cytotoxicity (LD50, μM)” value in series [4] (human) was 49 µM.

Consider `O=c1c(-c2ccccc2)c(O)c2cc(F)cnc2n1O` [Example 48, 6-Fluoro-1,4-dihydroxy-3-phenyl-1,8-naphthyridin-2(1H)-one], for which the IC50 is 200 nM in series [1] (setting [9]); less than 50 µM in series [2] (setting [10]); 0.023 µM in series [2] (setting [11]); 0.14 µM in series [3] (setting [7]); less than 100 µM in series [3] (setting [8]). The “Cytotoxicity (LD50, μM)” value in series [4] (human) was 31 µM.

Regarding `C[C@H](Nc1cc(=O)n(O)c2ncccc12)c1ccccc1` [Example 124, 1-hydroxy-4-{[(1S)-1-phenylethyl]amino}-1,8-naphthyridin-2(1H)-one], the half-inhibitory concentration (IC50) in series [1] was 230 nM; in series [2] (setting [5]), less than 50 µM; in series [2] (setting [6]), 0.66 µM; in series [3] (setting [7]) it was 0.16 µM; in series [3] (setting [8]), less than 100 µM. The “Cytotoxicity (LD50, μM)” value in series [4] (human) is 50 µM.

On to `O=c1cc(NC2CCCc3ccccc32)c2cccnc2n1O` (stereo not drawn) [Example 135, 1-hydroxy-4-(1,2,3,4-tetrahydronaphthalen-1-ylamino)-1,8-naphthyridin-2(1H)-one], for which the IC50 is 61 nM in series [1]; less than 50 µM in series [2] (setting [5]); 0.19 µM in series [2] (setting [6]); 0.5 µM in series [3] (setting [7]); less than 100 µM in series [3] (setting [8]). Also, the “Cytotoxicity (LD50, μM)” value in series [4] (human) is more than 100 µM.

Consider `O=c1c(-c2ccccn2)c(O)c2cccnc2n1O` [Example 27, 1,4-Dihydroxy-3-pyridin-2-yl-1,8-naphthyridin-2(1B)-one], for which the IC50 in series [1] is 100 nM; in series [2] (setting [5]), less than 50 µM; in series [2] (setting [6]), 0.06 µM; in series [3] (setting [7]) it was 0.5 µM; in series [3] (setting [8]) it was less than 100 µM. For the same molecule, the “Cytotoxicity (LD50, μM)” value in series [4] (human) turned out to be 6.2 µM.

In the case of `O=c1cc(NCc2cccc(CN3CCOCC3)c2)c2cccnc2n1O` [Example 151, 1-hydroxy-4-{[3-(4-morpholinylmethyl)benzyl]amino}-1,8-naphthyridin-2(1H-one)], the IC50 was 160 nM in series [1]; less than 50 µM in series [2] (setting [5]); 0.23 µM in series [2] (setting [6]); 0.13 µM in series [3] (setting [7]); less than 100 µM in series [3] (setting [8]). Besides, the “Cytotoxicity (LD50, μM)” value in series [4] (human) is 15 µM.

`NCc1ccc(-c2ccc(-c3c(-c4ccccc4)c(=O)n(O)c4ncc(F)cc34)cc2)cc1` [Example 242, 4-[4′-(aminomethyl)biphenyl-4-yl]-6-fluoro-1-hydroxy-3-phenyl-1,8-naphthyridin-2-(1H)-one]: the IC50 in series [1] was 180 nM; in series [2] (setting [5]), less than 50 µM; in series [2] (setting [6]), 7.4 µM; in series [3] (setting [7]), 0.25 µM; in series [3] (setting [8]), less than 100 µM. In series [4] (human), the “Cytotoxicity (LD50, μM)” value stood at 310 µM.

As to `COc1ccccc1CNc1cc(=O)n(O)c2ncccc12` [Example 142, 1-hydroxy-4-[(2-methoxybenzyl)amino]-1,8-naphthyridin-2(1H-one)], the concentration for half-maximal inhibition (IC50) in series [1] is 84 nM; in series [2] (setting [5]) it was less than 50 µM; in series [2] (setting [6]), 0.56 µM; in series [3] (setting [7]), 0.09 µM; in series [3] (setting [8]), less than 100 µM. In addition, the “Cytotoxicity (LD50, μM)” value in series [4] (human) turned out to be 4.4 µM.

On to `O=c1cc(Cc2ccc(CCc3ccc(F)cc3F)cc2)c2cccnc2n1O` [Example 236, 4-{4-[2-(2,4-difluorophenyl)ethyl]benzyl}-1-hydroxy-1,8-naphthyridin-2(1H)-one], for which the IC50 in series [1] was 120 nM; in series [2] (setting [5]) it was less than 50 µM; in series [2] (setting [6]), 0.05 µM; in series [3] (setting [7]) it was 0.26 µM; in series [3] (setting [8]) it was less than 100 µM. The “Cytotoxicity (LD50, μM)” value in series [4] (human) came to 21 µM.

`CCOC(=O)c1c(O)c2c(-c3cccc(CN(C)C)c3)ccnc2n(O)c1=O` [Example 230, ethyl 5-{3-[(dimethylamino)methyl]phenyl}-1,4-dihydroxy-2-oxo-1,2-dihydro-1,8-naphthyridine-3-carboxylate]: the concentration for half-maximal inhibition (IC50) in series [1] (setting [9]) is 110 nM; in series [2] (setting [10]) it was less than 50 µM; in series [2] (setting [11]) it was 2.3 µM; in series [3] (setting [7]), 0.77 µM; in series [3] (setting [8]) it was less than 100 µM. The “Cytotoxicity (LD50, μM)” value in series [4] (human) was more than 100 µM.

As to `CCOC(=O)c1ccnc2c1c(-c1ccc(-c3ccc(CN)cc3)cc1)cc(=O)n2O` [Example 241, Ethyl 5-[4′-(aminomethyl)biphenyl-4-yl]-8-hydroxy-7-oxo-7,8-dihydro-1,8-naphthyridine-4-carboxylate], the IC50 is 290 nM in series [1] (setting [9]); less than 50 µM in series [2] (setting [10]); 6.2 µM in series [2] (setting [11]); 0.32 µM in series [3] (setting [7]); less than 100 µM in series [3] (setting [8]). Besides, the “Cytotoxicity (LD50, μM)” value in series [4] (human) amounted to 3.8 µM.

As to `O=c1cc(NCc2ccccn2)c2cccnc2n1O` [Example 149, 1-hydroxy-4-[(2-pyridinylmethyl)amino]-1,8-naphthyridin-2(1H-one)], the IC50 is 140 nM in series [1]; less than 50 µM in series [2] (setting [5]); 0.7 µM in series [2] (setting [6]); 0.06 µM in series [3] (setting [7]); less than 100 µM in series [3] (setting [8]). The “Cytotoxicity (LD50, μM)” value in series [4] (human) was found to be 5.2 µM.

`O=c1cc(N2CCc3ccc(-c4cccnc4)cc3C2)c2cccnc2n1O` [Example 255, 1-hydroxy-4-(7-pyridin-3-yl-3,4-dihydroisoquino1in-2(1H)-yl)-1,8-naphthyridin-2(1H)-one]: the half-maximal inhibitory concentration (IC50) is 120 nM in series [1]; less than 50 µM in series [2] (setting [5]); 1.8 µM in series [2] (setting [6]); 0.17 µM in series [3] (setting [7]); less than 100 µM in series [3] (setting [8]). For the same molecule, the “Cytotoxicity (LD50, μM)” value in series [4] (human) amounted to 5.1 µM.

On to `O=c1cc(NCc2cccc(N3CCOCC3)n2)c2cccnc2n1O` [Example 115, 1-hydroxy-4-{[(6-morpholin-4-ylpyridin-2-yl)methyl]amino}-1,8-naphthyridin-2(1H)-one], for which the IC50 in series [1] is 180 nM; in series [2] (setting [5]) it was less than 50 µM; in series [2] (setting [6]), 1.9 µM; in series [3] (setting [7]) it was 0.11 µM; in series [3] (setting [8]), less than 100 µM. Further, the “Cytotoxicity (LD50, μM)” value in series [4] (human) is 8.6 µM.

Consider `NCc1ccccc1CNc1cc(=O)n(O)c2ncccc12` [Example 163, 4-{[2-(aminomethyl)benzyl]amino}-1-hydroxy-1,8-naphthyridin-2 (1H-one)], for which the concentration for half-maximal inhibition (IC50) in series [1] is 180 nM; in series [2] (setting [5]) it was more than 50 µM; in series [2] (setting [6]) it was more than 50 µM; in series [3] (setting [7]), 0.14 µM; in series [3] (setting [8]) it was less than 100 µM. Besides, the “Cytotoxicity (LD50, μM)” value in series [4] (human) was found to be 50 µM.

For the molecule `COC(=O)c1ccc2c(c1)CCN(c1cc(=O)n(O)c3ncccc13)C2` [Example 121, 4-[6-(methoxycarbonyl)-3,4-dihydroisoquinolin-2(1H)-yl]-1-hydroxy-1,8-naphthyridin-2(1H)-one], the half-inhibitory concentration (IC50) in series [1] was 150 nM; in series [2] (setting [5]) it was less than 50 µM; in series [2] (setting [6]), 0.6 µM; in series [3] (setting [7]), 0.26 µM; in series [3] (setting [8]) it was less than 100 µM. Moreover, the “Cytotoxicity (LD50, μM)” value in series [4] (human) is 16 µM.

Turning to `NCc1cccc(-c2cccc(Cc3cc(=O)n(O)c4ncccc34)c2)c1` [Example 231, 4-{[3′-(aminomethyl)biphenyl-3-yl]methyl}-1-hydroxy-1,8-naphthyridin-2(1 H)-one], the IC50 is 340 nM in series [1] (setting [9]); less than 50 µM in series [2] (setting [10]); 1.1 µM in series [2] (setting [11]); 0.29 µM in series [3] (setting [7]); less than 100 µM in series [3] (setting [8]). For the same molecule, in series [4] (human), the “Cytotoxicity (LD50, μM)” value is 10 µM.
